The source made the active and inactive calls.
Assays:
[1] = molecular target: Cytochrome P450 2C9 (Homo sapiens, UniProt P11712)
[2] = molecular target: Cytochrome P450 2C19 (Homo sapiens, UniProt P33261); assay: Cytochrome panel assay with activity outcomes. Panel member name: p450-cyp2c19 Compounds with AC50 equal or less than 10 uM are considered active; assay type: functional; settings: read-out: AC50
[3] = viability of HCT116 lacking mutant beta-catenin – cell-based, human colon tumor, dose response (AID 1045); assay type: functional;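 note: HCT116 colon tumor cells with beta catenin knocked out; cells exposed to compound for 60 hours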
[4] = viability of PTEN-deleted HCT116 cells – cell-based, HCT116 PTEN knockout, dose response (AID 1047); assay type: functional;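 note: HCT116 colon tumor cells with PTEN knocked out; cells exposed to compound for 60 hours before readout; potency for loss of cell viability measured by luminescence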
[5] = molecular target: T1, Short transient receptor potential channel 4 (Mus musculus, UniProt Q9QUQ5); assay: calcium entry via TRPC4 opening agents – cell-based, HEK293 TRPC4/mu-opioid, Fluo-4 calcium, dose response (AID 434937); assay type: functional
T1 sequence (Q9QUQ5 whole entry): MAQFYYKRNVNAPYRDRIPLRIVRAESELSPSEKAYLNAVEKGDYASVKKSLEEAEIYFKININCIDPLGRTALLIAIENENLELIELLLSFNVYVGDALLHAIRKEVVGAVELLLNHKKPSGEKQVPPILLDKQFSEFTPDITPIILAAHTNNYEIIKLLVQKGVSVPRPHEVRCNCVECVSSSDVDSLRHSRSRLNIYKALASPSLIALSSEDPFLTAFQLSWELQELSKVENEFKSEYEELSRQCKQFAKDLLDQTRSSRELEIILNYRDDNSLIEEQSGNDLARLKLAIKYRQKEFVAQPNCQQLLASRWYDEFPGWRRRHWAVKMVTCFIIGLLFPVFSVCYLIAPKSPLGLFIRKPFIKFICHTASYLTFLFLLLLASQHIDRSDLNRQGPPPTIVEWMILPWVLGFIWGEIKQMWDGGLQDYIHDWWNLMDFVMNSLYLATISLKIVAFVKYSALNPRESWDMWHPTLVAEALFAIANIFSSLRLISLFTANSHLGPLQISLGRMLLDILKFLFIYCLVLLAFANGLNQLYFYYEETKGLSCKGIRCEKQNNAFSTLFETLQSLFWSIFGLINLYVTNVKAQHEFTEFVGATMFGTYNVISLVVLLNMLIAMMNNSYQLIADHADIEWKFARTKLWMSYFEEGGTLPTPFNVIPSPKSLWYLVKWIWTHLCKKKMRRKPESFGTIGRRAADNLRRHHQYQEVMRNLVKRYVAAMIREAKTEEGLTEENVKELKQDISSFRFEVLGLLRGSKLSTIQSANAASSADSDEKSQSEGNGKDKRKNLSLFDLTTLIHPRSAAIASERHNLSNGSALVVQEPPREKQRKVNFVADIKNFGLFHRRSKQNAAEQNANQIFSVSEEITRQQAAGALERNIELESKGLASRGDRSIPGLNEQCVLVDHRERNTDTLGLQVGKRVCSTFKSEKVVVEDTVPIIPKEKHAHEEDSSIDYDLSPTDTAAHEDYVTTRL

[6] = molecular target: Cytochrome P450 2D6 (Homo sapiens, UniProt P10635);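 note: CYP2D6 member of a cytochrome P450 panel assay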
[7] = molecular target: T2, High affinity choline transporter 1 (Homo sapiens, UniProt Q9GZV3); assay: human choline transporter blockers, potency – cell-based, 5-point CRC, membrane potential dye, dose response (AID 504840); assay type: functional
T2 sequence (Q9GZV3 whole entry): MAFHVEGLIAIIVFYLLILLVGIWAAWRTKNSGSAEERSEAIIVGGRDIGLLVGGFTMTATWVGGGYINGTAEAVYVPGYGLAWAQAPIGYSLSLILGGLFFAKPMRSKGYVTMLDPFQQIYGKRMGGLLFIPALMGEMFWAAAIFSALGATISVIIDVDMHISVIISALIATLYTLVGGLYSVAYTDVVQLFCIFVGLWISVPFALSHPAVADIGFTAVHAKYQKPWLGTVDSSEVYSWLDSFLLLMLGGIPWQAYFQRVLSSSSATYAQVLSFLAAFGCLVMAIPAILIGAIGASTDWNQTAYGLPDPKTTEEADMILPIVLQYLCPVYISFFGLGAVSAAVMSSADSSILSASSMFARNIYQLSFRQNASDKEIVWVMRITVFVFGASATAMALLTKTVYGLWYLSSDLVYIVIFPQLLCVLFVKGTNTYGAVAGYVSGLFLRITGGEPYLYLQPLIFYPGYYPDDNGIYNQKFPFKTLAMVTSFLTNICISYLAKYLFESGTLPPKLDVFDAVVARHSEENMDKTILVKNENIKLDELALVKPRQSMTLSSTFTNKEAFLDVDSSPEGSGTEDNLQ

[8] = molecular target: T3, Aminopeptidase N (Plasmodium falciparum FcB1/Columbia, UniProt O96935); assay: malaria alanyl aminopeptidase activity blockers – biochemical, fluorogenic H-Leu-NHMec substrate, 1536-well (AID 1445); set-up: species or system Plasmodium falciparum 3D7, 3D7
T3 sequence (O96935 whole entry): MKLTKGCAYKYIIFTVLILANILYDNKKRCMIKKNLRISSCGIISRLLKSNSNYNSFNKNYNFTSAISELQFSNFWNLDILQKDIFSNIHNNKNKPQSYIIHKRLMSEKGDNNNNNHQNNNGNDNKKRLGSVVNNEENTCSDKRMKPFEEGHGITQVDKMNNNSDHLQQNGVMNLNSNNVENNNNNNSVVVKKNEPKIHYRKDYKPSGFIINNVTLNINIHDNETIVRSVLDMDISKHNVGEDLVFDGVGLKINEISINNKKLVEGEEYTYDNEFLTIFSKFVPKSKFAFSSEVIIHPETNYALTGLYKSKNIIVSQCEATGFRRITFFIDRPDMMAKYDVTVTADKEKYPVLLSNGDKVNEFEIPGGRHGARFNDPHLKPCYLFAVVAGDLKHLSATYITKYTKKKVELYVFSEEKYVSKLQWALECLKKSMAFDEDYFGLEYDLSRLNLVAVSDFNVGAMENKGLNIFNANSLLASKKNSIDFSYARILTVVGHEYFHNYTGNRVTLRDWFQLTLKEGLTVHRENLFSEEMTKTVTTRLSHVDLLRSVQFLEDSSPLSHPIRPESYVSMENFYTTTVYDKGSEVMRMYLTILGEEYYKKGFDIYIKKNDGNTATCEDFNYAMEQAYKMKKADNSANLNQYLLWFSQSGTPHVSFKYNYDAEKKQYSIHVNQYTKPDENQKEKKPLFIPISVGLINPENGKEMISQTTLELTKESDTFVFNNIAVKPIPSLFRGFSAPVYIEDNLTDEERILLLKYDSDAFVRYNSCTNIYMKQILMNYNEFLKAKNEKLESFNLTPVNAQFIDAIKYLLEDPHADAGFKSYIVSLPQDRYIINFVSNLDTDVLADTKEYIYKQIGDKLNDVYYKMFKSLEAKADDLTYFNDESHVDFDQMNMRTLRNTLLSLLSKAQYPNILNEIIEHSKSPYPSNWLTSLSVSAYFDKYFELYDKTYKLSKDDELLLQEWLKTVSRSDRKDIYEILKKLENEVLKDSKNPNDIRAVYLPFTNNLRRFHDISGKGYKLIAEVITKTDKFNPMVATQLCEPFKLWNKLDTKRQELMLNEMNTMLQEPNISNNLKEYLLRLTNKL

[9] = microbe, parasite or virus in culture; assay type: functional; settings: Mycobacterium tuberculosis
[10] = viability of uninfected HEp-2 cells – cell-based, HTS, cytotoxicity control for RSV inhibitor project, dose response (AID 2410); assay type: functional; settings: human respiratory syncytial virus
[11] = Luminescence Cell-Based Dose Retest to Confirm Inhibitors of Cancer Stem Cells. [Related pubchem assays (depositor defined):AID2717, AID2721]; assay type: functional, Homo sapiens; settings: Homo sapiens
[12] = molecular target: T4, Cytochrome P450 1A2 (Homo sapiens, UniProt P05177);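 note: PubChem cytochrome P450 panel assay, CYP1A2 panel member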
T4 sequence (P05177 whole entry): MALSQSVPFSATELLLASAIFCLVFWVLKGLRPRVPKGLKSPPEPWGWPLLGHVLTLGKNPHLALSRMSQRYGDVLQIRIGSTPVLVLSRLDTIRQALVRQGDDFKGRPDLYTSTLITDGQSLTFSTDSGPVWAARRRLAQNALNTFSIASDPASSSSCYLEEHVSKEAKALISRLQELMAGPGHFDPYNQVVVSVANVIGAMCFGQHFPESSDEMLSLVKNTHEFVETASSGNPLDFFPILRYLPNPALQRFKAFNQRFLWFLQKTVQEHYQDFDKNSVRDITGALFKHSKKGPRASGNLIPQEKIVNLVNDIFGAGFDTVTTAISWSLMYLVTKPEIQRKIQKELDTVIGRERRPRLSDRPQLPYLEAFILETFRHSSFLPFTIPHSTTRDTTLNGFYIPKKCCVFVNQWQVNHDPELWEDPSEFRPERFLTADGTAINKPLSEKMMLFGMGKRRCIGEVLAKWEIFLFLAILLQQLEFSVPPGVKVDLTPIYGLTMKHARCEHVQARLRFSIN

[13] = molecular target: T5, Zinc finger protein mex-5 (Caenorhabditis elegans, UniProt Q9XUB2); assay: potency of MEX-5 RNA-binding blockers – biochemical, C. elegans, fluorescence polarization, dose response (AID 1960)
T5 sequence (Q9XUB2 whole entry): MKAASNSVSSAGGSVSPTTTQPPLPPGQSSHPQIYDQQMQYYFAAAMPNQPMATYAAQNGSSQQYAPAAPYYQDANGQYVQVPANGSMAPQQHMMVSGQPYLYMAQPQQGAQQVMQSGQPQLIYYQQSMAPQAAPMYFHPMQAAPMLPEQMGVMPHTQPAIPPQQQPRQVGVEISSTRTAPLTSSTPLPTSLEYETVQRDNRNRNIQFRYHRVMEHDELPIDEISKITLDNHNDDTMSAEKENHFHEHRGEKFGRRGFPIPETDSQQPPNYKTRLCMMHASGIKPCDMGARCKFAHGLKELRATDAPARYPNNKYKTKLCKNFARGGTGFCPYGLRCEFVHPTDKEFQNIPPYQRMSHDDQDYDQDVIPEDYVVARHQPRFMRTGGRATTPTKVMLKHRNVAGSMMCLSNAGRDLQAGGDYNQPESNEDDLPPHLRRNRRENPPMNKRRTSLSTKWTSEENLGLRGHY

[14] = A cytotoxicity screen of small molecule inhibitors of the PhoP region in Salmonella typhi identified in the primary screen. [Related pubchem assays: 1850, 1864, 1985 ]; assay type: functional
[15] = molecular target: T6, RNA-binding protein pos-1 (Caenorhabditis elegans, UniProt G5EF15); assay: disruptors of C. elegans POS-1 RNA interaction – biochemical, fluorescence polarization, dose response (AID 1964);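 note: purified POS-1 fused to maltose binding protein made in E. coli; potency of compounds blocking POS-1 binding to fluorescent RNA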
T6 sequence (G5EF15 whole entry): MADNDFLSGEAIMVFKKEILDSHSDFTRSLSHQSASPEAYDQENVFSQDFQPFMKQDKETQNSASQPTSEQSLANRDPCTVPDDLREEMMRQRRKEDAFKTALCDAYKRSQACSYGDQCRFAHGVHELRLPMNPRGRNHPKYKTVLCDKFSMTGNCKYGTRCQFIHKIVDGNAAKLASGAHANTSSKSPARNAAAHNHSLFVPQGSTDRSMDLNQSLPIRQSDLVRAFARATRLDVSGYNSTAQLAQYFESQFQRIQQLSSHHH

Sequence of Cytochrome P450 2C9 (P11712 whole entry): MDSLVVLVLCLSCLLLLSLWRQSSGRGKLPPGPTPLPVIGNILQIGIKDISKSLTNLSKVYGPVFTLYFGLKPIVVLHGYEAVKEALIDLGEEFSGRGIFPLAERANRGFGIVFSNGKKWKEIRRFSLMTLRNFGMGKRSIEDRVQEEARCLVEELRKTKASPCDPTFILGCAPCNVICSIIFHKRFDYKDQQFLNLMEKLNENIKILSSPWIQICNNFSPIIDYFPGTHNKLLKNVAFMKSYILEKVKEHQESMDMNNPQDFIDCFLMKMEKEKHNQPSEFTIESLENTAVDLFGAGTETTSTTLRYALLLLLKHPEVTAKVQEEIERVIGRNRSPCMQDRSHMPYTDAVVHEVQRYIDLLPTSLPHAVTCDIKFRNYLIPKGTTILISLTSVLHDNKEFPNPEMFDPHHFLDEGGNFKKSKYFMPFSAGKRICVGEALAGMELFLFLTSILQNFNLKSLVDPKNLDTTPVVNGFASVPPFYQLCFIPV
Sequence of Cytochrome P450 2D6 (P10635 whole entry): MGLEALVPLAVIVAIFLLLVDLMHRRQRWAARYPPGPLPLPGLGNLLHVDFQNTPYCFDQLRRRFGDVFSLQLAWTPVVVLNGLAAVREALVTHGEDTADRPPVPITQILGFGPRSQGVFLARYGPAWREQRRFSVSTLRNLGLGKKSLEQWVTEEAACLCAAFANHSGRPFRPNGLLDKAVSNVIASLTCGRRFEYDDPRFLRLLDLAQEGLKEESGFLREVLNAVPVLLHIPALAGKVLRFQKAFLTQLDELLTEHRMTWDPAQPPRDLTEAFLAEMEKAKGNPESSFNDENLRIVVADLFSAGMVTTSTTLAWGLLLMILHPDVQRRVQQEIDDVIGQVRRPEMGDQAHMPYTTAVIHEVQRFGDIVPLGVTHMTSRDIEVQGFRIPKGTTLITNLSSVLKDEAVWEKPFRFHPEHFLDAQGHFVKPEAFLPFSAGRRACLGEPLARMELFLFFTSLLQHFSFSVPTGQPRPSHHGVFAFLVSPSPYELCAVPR
Sequence of Cytochrome P450 2C19 (P33261 whole entry): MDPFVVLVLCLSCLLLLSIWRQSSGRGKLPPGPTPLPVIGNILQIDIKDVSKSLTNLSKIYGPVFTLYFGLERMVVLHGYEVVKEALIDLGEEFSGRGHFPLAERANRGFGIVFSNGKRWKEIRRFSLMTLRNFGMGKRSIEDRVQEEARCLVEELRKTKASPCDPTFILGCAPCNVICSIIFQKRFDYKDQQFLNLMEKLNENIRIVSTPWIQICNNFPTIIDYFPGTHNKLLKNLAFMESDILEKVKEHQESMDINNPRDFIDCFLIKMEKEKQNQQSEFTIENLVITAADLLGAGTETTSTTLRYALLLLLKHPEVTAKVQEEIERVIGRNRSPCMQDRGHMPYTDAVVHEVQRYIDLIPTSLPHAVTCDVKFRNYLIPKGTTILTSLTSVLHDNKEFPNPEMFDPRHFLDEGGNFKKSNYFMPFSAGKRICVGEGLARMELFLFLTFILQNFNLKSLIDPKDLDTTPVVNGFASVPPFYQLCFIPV

With `CNc1oc(C)nc1S(=O)(=O)c1ccc(C)cc1` the AC50 [1] was “inconclusive” and the AC50 [2] was 31.6 µM (inconclusive).

With `Cc1ccccc1C(O)(Cc1ccccc1)C1CN2CCC1CC2` (stereo not given) the EC50 [3] was 14.5 µM (active), the EC50 [4] was 14.8 µM (active) and the EC50 [5] was 5.31 µM (active).

In the case of `CN(CCc1ccccn1)C(=O)CC1C(=O)NCCN1Cc1cccc(F)c1` (stereo not given), the EC50 [5] is reported as 2.37 µM (active).

With `O=C(CCCN1C(=O)c2cccc3cccc(c23)C1=O)N1CCc2ccccc2C1` the AC50 [6] was 22.4 µM (inconclusive) and the AC50 [1] was “inconclusive”.

For `Cc1csc(NC(=O)CCN2C(=O)c3ccccc3S2(=O)=O)n1`, the IC50 [7] was 13.8 µM (active).

With `CS(=O)(=O)N1CCC(C(=O)c2cccc(Cl)c2)CC1` the IC50 [8] was 41.1 µM (active).

In the case of `CCN1CCN(C(=O)c2ccc3nc(-c4ccccc4)c(-c4ccccc4)nc3c2)CC1`, the IC50 [7] is reported as 15.6 µM (active).

For `CC(C)C(=O)Nc1cccc(NC(=O)c2ccc(Cl)cc2Cl)c1`, the IC50 [7] was 7.24 µM (active).

With `COc1ccccc1CCC(=O)Nc1cc(S(=O)(=O)N2CCCCC2)ccc1N1CCN(C)CC1` the EC50 [5] was 0.944 µM (active).

In the case of `CCn1c(C)c(C)c2cc(C(=O)Nc3cccc(Cl)c3)ccc21`, the CC50 [9] is reported as > 40 µM (active), the CC50 [10] is reported as 30.4 µM (active) and the AC50 [1] is reported as “inconclusive”. The AC50 [11] was 3.56 µM (active).

For `CN(C)C(=O)c1ccc(-c2nc(NC3CCNCC3)c3ccccc3n2)cc1`, the AC50 [1] was “inconclusive” and the AC50 [12] was 20 µM (inconclusive).

In the case of `Cc1cccc(NC(=O)c2sc3nc(-c4ccccc4)cn3c2C)n1`, the EC50 [13] is reported as > 300 µM (not active), the EC50 [14] is reported as > 50 µM (active) and the EC50 [15] is reported as > 300 µM (not active).

With `CCCc1cc(=O)oc2c(CN3CCN(C)CC3)c(O)c(Cl)cc12` the IC50 [8] was 42 µM (active).

In the case of `CN1CCN(c2ncc3nc(-c4cn(C)c5ccccc45)c(=O)n(C[C@H]4CCCO4)c3n2)CC1`, the AC50 [1] is reported as “inconclusive” and the AC50 [12] is reported as 6.31 µM (inconclusive).

With `Nc1ccn([C@@H]2CC[C@H](CO)O2)c(=O)n1` the AC50 [1] was “inconclusive”.

With `O=C(CSc1nc2ccccc2c(=O)n1C1CC1)NCc1ccccc1` the IC50 [7] was 4.79 µM (active).

With `Cc1cccc(C)c1OCC(O)CN` (stereo not given) the EC50 [5] was 4.22 µM (active).

For `Cn1c(CN2CCCCC2)nc2cc(NC(=O)c3ccccc3Cl)ccc21`, the IC50 [7] was 13.5 µM (active).

For `Cc1sc2nc(CSc3ccccc3)nc(NCCN(C)C)c2c1C`, the EC50 [5] was 2.99 µM (active).

For `Cn1c(=O)c2nc(-c3ccccc3)oc2c2ccccc21`, the AC50 [6] was 28.2 µM (inconclusive), the AC50 [1] was “inconclusive” and the AC50 [2] was 28.2 µM (inconclusive).

In the case of `C=CCOc1ccc(/C=C2\C(=N)N3N=C(S(=O)(=O)CC)SC3=NC2=O)cc1OC`, the IC50 [8] is reported as 24.5 µM (active).

For `COCCOC(=O)c1c(C)oc2ccc(NS(=O)(=O)c3cccs3)cc12`, the IC50 [8] was 48.5 µM (active).

Source: ChEMBL document CHEMBL1201862, “PubChem BioAssay data set” (2004)
